Reference: patent US20240190891A1, “PYRIDO OXAZINE AMINO DERIVATIVES AS ALK5 INHIBITORS” (CHIESI FARMACEUTICI S.P.A., priority 2020, published 2024)

Biological target: T1, human ALK5 (Homo sapiens, UniProt P36897)
T1 construct: human ALK5 (recombinant TGF β1 N-term GST-tagged, 80-end); GST (N); purchased
T1 sequence (P36897 80-503 limits assumed): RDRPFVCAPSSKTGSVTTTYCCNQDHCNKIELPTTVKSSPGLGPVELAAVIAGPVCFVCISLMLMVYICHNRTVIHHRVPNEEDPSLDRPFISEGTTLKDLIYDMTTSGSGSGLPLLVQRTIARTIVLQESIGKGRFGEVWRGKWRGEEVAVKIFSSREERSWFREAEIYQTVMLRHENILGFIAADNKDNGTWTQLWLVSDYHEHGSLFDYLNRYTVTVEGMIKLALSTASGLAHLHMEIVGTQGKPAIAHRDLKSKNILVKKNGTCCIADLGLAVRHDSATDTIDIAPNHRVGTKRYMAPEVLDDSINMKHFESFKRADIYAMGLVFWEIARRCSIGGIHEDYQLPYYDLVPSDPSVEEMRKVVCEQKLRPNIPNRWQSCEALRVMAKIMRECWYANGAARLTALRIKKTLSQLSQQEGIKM
Test: ADP-GLO Kinases assay, inhibitory activity on ALK5
Format: biochemical
Settings: Table 10; purified recombinant human ALK5 2.6 nM, ADP-Glo, 25° C., 150 min incubation
Experimental: The enzymatic activity of compounds of the present invention was monitored measuring the formation of ADP using the ADP-GLO Kinases assay. Following the incubation of the purified enzyme, a substrate and ATP, the produced ADP was converted into ATP, which in turn was converted into light by Ultra-Glo Luciferase. The luminescent signal positively correlated with ADP amount and kinase activity. Briefly, the kinase reaction was performed by incubating 2.6 nM of the purified, commercially available human ALK5 (recombinant TGF β1 N-term GST-tagged, 80-end), a final concentration of TGFβ1 peptide 94.5 μM (Promega, T36-58) and ultra-pure ATP (Promega V915B). The ATP concentration was set at the Km value (concentration of substrate which permits the enzyme to achieve half maximal velocity (Vmax)) of ALK5 (5 μM). All reactions/incubations were performed at 25° C. Compound and ALK5 kinase were mixed and incubated for 15 mins. Reactions were initiated by addition of ATP at a final concentration in the assay of 0.83 μM. After an incubation of 150 min, the reaction was stopped, and ADP production detected with ADP-Glo kit according to manufacturer's indications. The assay was performed in 384-well format and was validated using a selection of reference compounds that was tested in 11 point concentration-response curve.
Compounds of the examples C1, C2 and C3 were tested in the same in vitro assay described above.

| SMILES | IC50 [nM] |
| --- | --- |
| CS(=O)(=O)N1CCN(CCNC(=O)c2cnccc2Nc2cc(-c3cc(Cl)ccc3F)nc3c2OCCN3)CC1 [Example 46, 4-{[6-(5-chloro-2-fluorophenyl)-2H,3H,4H-pyrido[3,2-b][1,4]oxazin-8-yl]amino}-N-[2-(4-methanesulfonylpiperazin-1-yl)ethyl]pyridine-3-carboxamide] | 1 to 5 |
| Fc1ccc(-c2cc(Nc3ccncc3)c3c(n2)NCCO3)cc1Cl [Example 19, N-[6-(3-chloro-4-fluorophenyl)-2H,3H,4H-pyrido[3,2-b][1,4]oxazin-8-yl]pyridin-4-amine] | 5 to 10 |
| Cc1csc(-c2cc(Nc3ccncc3)c3c(n2)NCCO3)n1 [Example 4, N-[6-(4-methyl-1,3-thiazol-2-yl)-2H,3H,4H-pyrido[3,2-b][1,4]oxazin-8-yl]pyridin-4-amine] | 5 to 10 |
| CN(CCNC(=O)c1cnccc1Nc1cc(-c2cc(Cl)ccc2F)nc2c1OCCN2)C1COC1 [Example 43, 4-{[6-(5-chloro-2-fluorophenyl)-2H,3H,4H-pyrido[3,2-b][1,4]oxazin-8-yl]amino}-N-{2-[methyl(oxetan-3-yl)amino]ethyl}pyridine-3-carboxamide] | 1 to 5 |
| CN1CCN(CCNC(=O)c2cnccc2Nc2cc(-c3cc(Cl)ccc3F)nc3c2OCCN3)CC1 [Example 28, 4-{[6-(5-chloro-2-fluorophenyl)-2H,3H,4H-pyrido[3,2-b][1,4]oxazin-8-yl]amino}-N-[2-(4-methylpiperazin-1-yl)ethyl]pyridine-3-carboxamide] | 1 to 5 |
| Fc1ccc(-c2cc(Nc3ccncc3)c3c(n2)NCCO3)nc1 [Example 26, N-[6-(5-fluoropyridin-2-yl)-2H,3H,4H-pyrido[3,2-b][1,4]oxazin-8-yl]pyridin-4-amine] | 5 to 10 |
| Nc1cnccc1Nc1cc(-c2cc(Cl)ccc2F)nc2c1OCCN2 [Example 7, N4-[6-(5-chloro-2-fluorophenyl)-2H,3H,4H-pyrido[3,2-b][1,4]oxazin-8-yl]pyridine-3,4-diamine] | 1 to 5 |
| CN(C)CCC(=O)Nc1cnccc1Nc1cc(-c2cc(Cl)ccc2F)nc2c1OCCN2 [Example 39, N-(4-{[6-(5-chloro-2-fluorophenyl)-2H,3H,4H-pyrido[3,2-b][1,4]oxazin-8-yl]amino}pyridin-3-yl)-3-(dimethylamino)propanamide] | 5 to 10 |
| Clc1cccc(-c2cc(Nc3ccncc3)c3c(n2)NCCO3)n1 [Example 13, N-[6-(6-chloropyridin-2-yl)-2H,3H,4H-pyrido[3,2-b][1,4]oxazin-8-yl]pyridin-4-amine] | 1 to 5 |
| Fc1ccc(F)c(-c2cc(Nc3ccncc3)c3c(n2)NCCO3)c1 [Example 14, N-[6-(2,5-difluorophenyl)-2H,3H,4H-pyrido[3,2-b][1,4]oxazin-8-yl]pyridin-4-amine] | 1 to 5 |
| CC(=O)N1CCN(CCNC(=O)c2cnccc2Nc2cc(-c3cc(Cl)ccc3F)nc3c2OCCN3)CC1 [Example 47, N-[2-(4-acetylpiperazin-1-yl)ethyl]-4-{[6-(5-chloro-2-fluorophenyl)-2H,3H,4H-pyrido[3,2-b][1,4]oxazin-8-yl]amino}pyridine-3-carboxamide] | 1 to 5 |
| O=C(NCCN1CCNCC1)c1cnccc1Nc1cc(-c2cc(Cl)ccc2F)nc2c1OCCN2 [Example 12, 4-{[6-(5-chloro-2-fluorophenyl)-2H,3H,4H-pyrido[3,2-b][1,4]oxazin-8-yl]amino}-N-[2-(piperazin-1-yl)ethyl]pyridine-3-carboxamide] | < 1 |
| O=C(NCCN1CCOCC1)c1cnccc1Nc1cc(-c2cc(Cl)ccc2F)nc2c1OCCN2 [Example 9, 4-{[6-(5-chloro-2-fluorophenyl)-2H,3H,4H-pyrido[3,2-b][1,4]oxazin-8-yl]amino}-N-[2-(morpholin-4-yl)ethyl]pyridine-3-carboxamide] | 1 to 5 |

The next lines start with the values.

| IC50 [nM] | SMILES |
| --- | --- |
| < 1 | Fc1ccc(Cl)cc1-c1cc(Nc2ccnc3[nH]ccc23)c2c(n1)NCCO2 [Example 31, 6-(5-chloro-2-fluorophenyl)-N-{1H-pyrrolo[2,3-b]pyridin-4-yl}-2H,3H,4H-pyrido[3,2-b][1,4]oxazin-8-amine] |
| < 1 | COC(=O)c1c[nH]c2nccc(Nc3cc(-c4cc(Cl)ccc4F)nc4c3OCCN4)c12 [Example 36, methyl 4-{[6-(5-chloro-2-fluorophenyl)-2H,3H,4H-pyrido[3,2-b][1,4]oxazin-8-yl]amino}-1H-pyrrolo[2,3-b]pyridine-3-carboxylate] |
| < 1 | O=C(CCN1CCOCC1)Nc1cc(Nc2cc(-c3cc(Cl)ccc3F)nc3c2OCCN3)ccn1 [Example 20, N-(4-{[6-(5-chloro-2-fluorophenyl)-2H,3H,4H-pyrido[3,2-b][1,4]oxazin-8-yl]amino}pyridin-2-yl)-3-(morpholin-4-yl)propanamide] |
| < 1 | Cc1ccc(F)c(-c2cc(Nc3ccncc3)c3c(n2)NCCO3)c1 [Example 8, N-[6-(2-fluoro-5-methylphenyl)-2H,3H,4H-pyrido[3,2-b][1,4]oxazin-8-yl]pyridin-4-amine] |
| < 1 | Fc1ccc(Cl)cc1-c1cc(Nc2ccnc3[nH]cnc23)c2c(n1)NCCO2 [Example 35, 6-(5-chloro-2-fluorophenyl)-N-{3H-imidazo[4,5-b]pyridin-7-yl}-2H,3H,4H-pyrido[3,2-b][1,4]oxazin-8-amine] |
| < 1 | O=C(O)c1cnccc1Nc1cc(-c2cc(Cl)ccc2F)nc2c1OCCN2 [Example 16, lithium 4-{[6-(5-chloro-2-fluorophenyl)-2H,3H,4H-pyrido[3,2-b][1,4]oxazin-8-yl]amino}pyridine-3-carboxylate] |
| < 1 | CN1CCN(CCC(=O)Nc2cc(Nc3cc(-c4cc(Cl)ccc4F)nc4c3OCCN4)ccn2)CC1 [Example 33, N-(4-{[6-(5-chloro-2-fluorophenyl)-2H,3H,4H-pyrido[3,2-b][1,4]oxazin-8-yl]amino}pyridin-2-yl)-3-(4-methylpiperazin-1-yl)propanamide] |
